Results on 19 compounds are retold here after the supplement of paper PMC8967900.
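Also: ALL cell lines in 384-well plates, five doses spanning 10,000-fold, each plate scaled between vehicle and 100 µmol/L benzalkonium chloride controls, sDSS an adapted area-under-curve metric.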

The test system of the first test is COG-LL-402h. Put plainly: selective drug sensitivity score (sDSS, relative to normal bone marrow) (sDSS (score)); higher = more potent and effective on the cell line relative to normal bone marrow cells. The conditions noted are these: 72 h.
Turning to `Cc1cc(Nc2ncc(Cl)c(Nc3ccccc3S(=O)(=O)C(C)C)n2)c(OC(C)C)cc1C1CCNCC1` [Ceritinib] (top concentration 2500 nM), the “selective drug sensitivity score” value worked out at 2.86.
In the case of `Cc1nc(Nc2ncc(C(=O)Nc3c(C)cccc3Cl)s2)cc(N2CCN(CCO)CC2)n1` [Dasatinib] (top concentration 1000 nM), the “selective drug sensitivity score” value was found to be 16.8.
Same read-out and setting: the value for `N[C@@H]1CCCN(c2c(/C=C3\SC(=O)NC3=O)cccc2-c2ccccc2)C1` [AZD1208] (top concentration 10000 nM) was -4.4; that for `CC(C)C[C@H](NC(=O)CNC(=O)c1cc(Cl)ccc1Cl)B(O)O` [Ixazomib] (top concentration 1000 nM) was 3.46; that for `C=CC(=O)N1CCC[C@@H](n2nc(-c3ccc(Oc4ccccc4)cc3)c3c(N)ncnc32)C1` [Ibrutinib] (top concentration 1000 nM) was 9.1.
For `Cn1cnc2c(F)c(Nc3ccc(Br)cc3F)c(C(=O)NOCCO)cc21` [Binimetinib] (top concentration 1000 nM), the “selective drug sensitivity score” value is 3.88.
The same measure, in the same setting: the value for `COc1cc(Nc2ncc(F)c(Nc3ccc4c(n3)N(COP(=O)(O)O)C(=O)C(C)(C)O4)n2)cc(OC)c1OC` [Fostamatinib] (top concentration 2500 nM) was 3.46.
Still for that read-out and setting: the value for `COc1cc2c(Oc3ccc(NC(=O)C4(C(=O)Nc5ccc(F)cc5)CC4)cc3F)ccnc2cc1OCCCN1CCOCC1` [Foretinib] (top concentration 1000 nM) was 1.64; that for `Sc1ncnc2nc[nH]c12` [Mercaptopurine] (top concentration 10000 nM) was 6.6; that for `COCCNCc1ccc(-c2cc3nccc(Oc4ccc(NC(=S)NC(=O)Cc5ccc(F)cc5)cc4F)c3s2)nc1` [Glesatinib] (top concentration 2500 nM) was -1.76.
Still for that read-out and setting: the value for `Cn1nccc1Nc1nccc(-c2ccn([C@H](CO)c3ccc(Cl)c(F)c3)c(=O)c2)n1` [Ravoxertinib] (top concentration 10000 nM) was 3.4; that for `CC1=NN(c2ccc(C(=O)O)cc2)C(=O)C1=Cc1ccc(-c2cc(C)c(C)cc2[N+](=O)[O-])o1` [C646] (top concentration 25000 nM) was -0.16; that for `CC(C)c1cc(C(=O)N2Cc3ccc(CN4CCN(C)CC4)cc3C2)c(O)cc1O` [Onalespib] (top concentration 2500 nM) was 7.22.
As to `CCN1C(=O)CNc2ncc(-c3ccc(-c4nc[nH]n4)nc3C)nc21` [CC-115] (top concentration 10000 nM), the “selective drug sensitivity score” value stood at 3.44.
The same measure, in the same setting: the value for `COc1cc(N2CCC(N3CCN(C)CC3)CC2)ccc1Nc1ncc(Cl)c(Nc2ccccc2P(C)(C)=O)n1` [Brigatinib] (top concentration 1000 nM) was -2.04.
As for `CN1CCN(c2nc(C3=C(c4c[nH]c5ccccc45)C(=O)NC3=O)c3ccccc3n2)CC1` [Sotrastaurin] (top concentration 10000 nM), the “selective drug sensitivity score” value was found to be 5.2.
On to `CCN(CC)Cc1ccc2cc(COC(=O)Nc3ccc(C(=O)NO)cc3)ccc2c1` [Givinostat] (top concentration 1000 nM), for which the “selective drug sensitivity score” value was 12.9.
The same measure, in the same setting: the value for `CNC(=O)c1cc(Oc2ccc(NC(=O)Nc3ccc(Cl)c(C(F)(F)F)c3)cc2)ccn1` [Sorafenib] (top concentration 1000 nM) was 0.
Same read-out and setting: the value for `COc1ccc(S(=O)(=O)Nc2cccnc2Nc2ccc(O)cc2)cc1` [ABT-751] (top concentration 10000 nM) was 8.92.

The next test concerns DND-41. Described as above. Conditions: 72 h.
For the compound `Cc1cc(Nc2ncc(Cl)c(Nc3ccccc3S(=O)(=O)C(C)C)n2)c(OC(C)C)cc1C1CCNCC1` [Ceritinib] (top concentration 2500 nM), the “selective drug sensitivity score” value was -3.44.
Same read-out and setting: the value for `Cc1nc(Nc2ncc(C(=O)Nc3c(C)cccc3Cl)s2)cc(N2CCN(CCO)CC2)n1` [Dasatinib] (top concentration 1000 nM) was 1.4.
For the compound `N[C@@H]1CCCN(c2c(/C=C3\SC(=O)NC3=O)cccc2-c2ccccc2)C1` [AZD1208] (top concentration 10000 nM), the “selective drug sensitivity score” value was -1.3.
Still for that read-out and setting: the value for `CC(C)C[C@H](NC(=O)CNC(=O)c1cc(Cl)ccc1Cl)B(O)O` [Ixazomib] (top concentration 1000 nM) was 9.36; that for `C=CC(=O)N1CCC[C@@H](n2nc(-c3ccc(Oc4ccccc4)cc3)c3c(N)ncnc32)C1` [Ibrutinib] (top concentration 1000 nM) was 0.
With `Cn1cnc2c(F)c(Nc3ccc(Br)cc3F)c(C(=O)NOCCO)cc21` [Binimetinib] (top concentration 1000 nM), the “selective drug sensitivity score” value was -2.22.
Same read-out and setting: the value for `COc1cc(Nc2ncc(F)c(Nc3ccc4c(n3)N(COP(=O)(O)O)C(=O)C(C)(C)O4)n2)cc(OC)c1OC` [Fostamatinib] (top concentration 2500 nM) was -0.64; that for `COc1cc2c(Oc3ccc(NC(=O)C4(C(=O)Nc5ccc(F)cc5)CC4)cc3F)ccnc2cc1OCCCN1CCOCC1` [Foretinib] (top concentration 1000 nM) was -4.46; that for `Sc1ncnc2nc[nH]c12` [Mercaptopurine] (top concentration 10000 nM) was 11.1.
In the case of `COCCNCc1ccc(-c2cc3nccc(Oc4ccc(NC(=S)NC(=O)Cc5ccc(F)cc5)cc4F)c3s2)nc1` [Glesatinib] (top concentration 2500 nM), the “selective drug sensitivity score” value stood at 0.44.
As to `Cn1nccc1Nc1nccc(-c2ccn([C@H](CO)c3ccc(Cl)c(F)c3)c(=O)c2)n1` [Ravoxertinib] (top concentration 10000 nM), the “selective drug sensitivity score” value was 4.5.
Still for that read-out and setting: the value for `CC1=NN(c2ccc(C(=O)O)cc2)C(=O)C1=Cc1ccc(-c2cc(C)c(C)cc2[N+](=O)[O-])o1` [C646] (top concentration 25000 nM) was 2.94; that for `CC(C)c1cc(C(=O)N2Cc3ccc(CN4CCN(C)CC4)cc3C2)c(O)cc1O` [Onalespib] (top concentration 2500 nM) was 4.62.
With `CCN1C(=O)CNc2ncc(-c3ccc(-c4nc[nH]n4)nc3C)nc21` [CC-115] (top concentration 10000 nM), the “selective drug sensitivity score” value turned out to be 6.74.
Still for that read-out and setting: the value for `COc1cc(N2CCC(N3CCN(C)CC3)CC2)ccc1Nc1ncc(Cl)c(Nc2ccccc2P(C)(C)=O)n1` [Brigatinib] (top concentration 1000 nM) was 7.16.
Consider `CN1CCN(c2nc(C3=C(c4c[nH]c5ccccc45)C(=O)NC3=O)c3ccccc3n2)CC1` [Sotrastaurin] (top concentration 10000 nM), for which the “selective drug sensitivity score” value came out at 0.3.
Still for that read-out and setting: the value for `CCN(CC)Cc1ccc2cc(COC(=O)Nc3ccc(C(=O)NO)cc3)ccc2c1` [Givinostat] (top concentration 1000 nM) was 2.4; that for `CNC(=O)c1cc(Oc2ccc(NC(=O)Nc3ccc(Cl)c(C(F)(F)F)c3)cc2)ccn1` [Sorafenib] (top concentration 1000 nM) was 0; that for `COc1ccc(S(=O)(=O)Nc2cccnc2Nc2ccc(O)cc2)cc1` [ABT-751] (top concentration 10000 nM) was 6.12.

The subject of the next test is HAL-01. The test is described as above. The conditions noted are these: 72 h.
As to `Cc1cc(Nc2ncc(Cl)c(Nc3ccccc3S(=O)(=O)C(C)C)n2)c(OC(C)C)cc1C1CCNCC1` [Ceritinib] (top concentration 2500 nM), the “selective drug sensitivity score” value is -1.44.
Same read-out and setting: the value for `Cc1nc(Nc2ncc(C(=O)Nc3c(C)cccc3Cl)s2)cc(N2CCN(CCO)CC2)n1` [Dasatinib] (top concentration 1000 nM) was -2.8; that for `N[C@@H]1CCCN(c2c(/C=C3\SC(=O)NC3=O)cccc2-c2ccccc2)C1` [AZD1208] (top concentration 10000 nM) was 6.3.
Still for that read-out and setting: the value for `CC(C)C[C@H](NC(=O)CNC(=O)c1cc(Cl)ccc1Cl)B(O)O` [Ixazomib] (top concentration 1000 nM) was 8.26; that for `C=CC(=O)N1CCC[C@@H](n2nc(-c3ccc(Oc4ccccc4)cc3)c3c(N)ncnc32)C1` [Ibrutinib] (top concentration 1000 nM) was 1.9.
The same measure, in the same setting: the value for `Cn1cnc2c(F)c(Nc3ccc(Br)cc3F)c(C(=O)NOCCO)cc21` [Binimetinib] (top concentration 1000 nM) was 8.28; that for `COc1cc(Nc2ncc(F)c(Nc3ccc4c(n3)N(COP(=O)(O)O)C(=O)C(C)(C)O4)n2)cc(OC)c1OC` [Fostamatinib] (top concentration 2500 nM) was 0.76; that for `COc1cc2c(Oc3ccc(NC(=O)C4(C(=O)Nc5ccc(F)cc5)CC4)cc3F)ccnc2cc1OCCCN1CCOCC1` [Foretinib] (top concentration 1000 nM) was 3.34.
For `Sc1ncnc2nc[nH]c12` [Mercaptopurine] (top concentration 10000 nM), the “selective drug sensitivity score” value came to 12.4.
